Measured values: BindingDB's records for doi:10.1021/jm970640l (University of Versailles Saint-Quentin-en-Yvelines, 1998)
pIC50: −log10 of the molar value.

Test: Inhibitory activity against hydrolysis of Gly-Pro-pNa by Dipeptidyl peptidase IV purified from CD26-negative C8166 cells

- pIC50: 6.20
Structure (SMILES): CCCCCCCC[S+](CCCCCCCC)Cc1ccc2cc1C(=O)NCC(=O)NCC(=O)NCCCC[C@H](N)C(=O)N1CCC[C@H]1C(=O)N2 [Cyclo(Lys(alphaH2+)-Pro-Aba-[CH2SOct2-]-Gly2-), 2CF3COO-]
